Laboratory results: PMC9827630, “Intra-colony venom diversity contributes to maintaining eusociality in a cooperatively breeding ant” (BMC Biology, 2023)
Where no end group is shown, it is not given here.

System: Candida albicans ATCC 90028
Experiment: Antifungal growth inhibition (CO-ADD)
Type: cell-based
Conditions: percentage growth inhibition, absorbance at 530 nm; mean ± SEM
Method: (§1) Antimicrobial and cytotoxicity assays were performed by CO-ADD (The Community for Antimicrobial Drug Discovery, Institute for Molecular Bioscience, The University of Queensland). […] Percentage growth inhibition was calculated using negative controls (media only) and positive controls (no peptide). For the hemolysis assays, human whole blood was washed three times with 3 volumes of 0.9% NaCl and then resuspended in 0.9% NaCl to a concentration of 0.5 × 10^8 cells/mL. Cells were incubated for 1 h at 37°C with or without the peptide. After incubation, plates were centrifuged at 1000 g for 10 min to pellet cells and debris and hemolysis determined by measuring the supernatant absorbance at 405 nm.

Substance	Max response ± SEM
FIGGLIKFIAKFVPKILPFFQKKN-OH [Rm34a]	100 ± 2
FLPFLIPVIASLVSSLK-NH2 [Rm55a]	3 ± 0

Same assay, conditions: sigmoidal dose-response fit of growth inhibition, absorbance at 530 nm

Substance	MIC [µM]
FIGGLIKFIAKFVPKILPFFQKKN-OH [Rm34a]	0.72
FLPFLIPVIASLVSSLK-NH2 [Rm55a]	>17

System: Cryptococcus neoformans var. grubii H99; ATCC 208821
Experiment: Antifungal growth inhibition (CO-ADD)
Type: cell-based
Conditions: percentage growth inhibition, difference in absorbance 600 and 570 nm after resazurin, 35°C 2 h; mean ± SEM
Method: as §1

Substance	Max response ± SEM
FIGGLIKFIAKFVPKILPFFQKKN-OH [Rm34a]	101 ± 0
FLPFLIPVIASLVSSLK-NH2 [Rm55a]	-10 ± 0

Same assay, conditions: sigmoidal dose-response fit of growth inhibition, resazurin read-out

Substance	MIC [µM]
FIGGLIKFIAKFVPKILPFFQKKN-OH [Rm34a]	6.1
FLPFLIPVIASLVSSLK-NH2 [Rm55a]	>17

System: F11
Experiment: Ion permeability F11
Type: cell-based, mouse
Conditions: ions listed as permeant; - = none

Substance	ion permeability F11
FIGGLIKFIAKFVPKILPFFQKKN-OH [Rm34a]	Ca2+,Na+,Th+
FLPFLIPVIASLVSSLK-NH2 [Rm55a]	Ca2+,Na+,Th+

System: HAP1 cells
Experiment: Cell viability assay, resazurin
Type: cell-based
Conditions: not given
Method: In addition to the cytotoxicity assays performed by CO-ADD, we screened the synthetic peptides for toxicity in cell viability assays using HAP1, MM96L, and HEK293T cells. peptides were reconstituted in 100% DMSO then diluted in cell media (HAP1: IMDM (Sigma Aldrich) with 10% FBS and 1% Penicillin/Streptomycin (P/S); MM96L: RPMI (Gibco) with 10% FBS, 1% P/S and 1% GlutaMAX (Gibco); HEK293T: DMEM high glucose (Gibco), with 10% FBS and 1% P/S. Trypsinized cells ([…]) were seeded in each well of a 96-well plate. 0.01 to 1000 μM peptide was added to each well after 24 h, and the cells incubated for an additional 74 h. After incubation, the medium was aspirated from each well and 150 μL of fresh medium containing a 0.002% solution of resazurin (Sigma-Aldrich) was added to the wells and incubated for 4 h at 37 °C. The absorbance was measured at 570 nm using a microplate spectrophotometer (FLUOstar Omega, BMG Labtech, Germany). Percentage cell viability at concentrations of 10 and 100 μM peptide were compared with negative control by one-way ANOVA Dunnett’s multiple comparisons test (GraphPad Prism8).

Substance	Cytotoxicity to HAP cells
FIGGLIKFIAKFVPKILPFFQKKN-OH [Rm34a]	cytotoxic to HAP cells
FLPFLIPVIASLVSSLK-NH2 [Rm55a]	cytotoxic to HAP cells

Same assay, conditions: 10 μM peptide, n = 3 per group

Substance	HAP cell viability
FIGGLIKFIAKFVPKILPFFQKKN-OH [Rm34a]	significantly reduced HAP cell viability

Same assay, conditions: 100 μM peptide, n = 3, mean ± SEM

Substance	HAP cell viability [%]
FLPFLIPVIASLVSSLK-NH2 [Rm55a]	24.6 ± 8.1

System: Human red blood cells
Experiment: Hemolysis assay (CO-ADD)
Type: cell-based
Conditions: 1 h at 37°C, absorbance at 405 nm; sigmoidal dose-response fit
Method: as §1

Substance	HC50 (concentration at 50% hemolytic activity)
FIGGLIKFIAKFVPKILPFFQKKN-OH [Rm34a]	3.3 µM
FLPFLIPVIASLVSSLK-NH2 [Rm55a]	>17 (HC50) uM

Same assay, conditions: hemolysis, washed human blood 0.5 × 10^8 cells/mL in 0.9% NaCl, 1 h at 37°C, supernatant absorbance at 405 nm; mean ± SEM

Substance	Max response ± SEM
FLPFLIPVIASLVSSLK-NH2 [Rm55a]	15 ± 6

System: Staphylococcus aureus ATCC 43300
Experiment: Antimicrobial growth inhibition (CO-ADD)
Type: cell-based
Conditions: not given
Method: as §1

Substance	Inhibition of S. aureus (in words)
FLPFLIPVIASLVSSLK-NH2 [Rm55a]	complete inhibition

Same assay, conditions: percentage growth inhibition, absorbance at 600 nm; mean ± SEM

Substance	Max response ± SEM
FIGGLIKFIAKFVPKILPFFQKKN-OH [Rm34a]	102 ± 2
FLPFLIPVIASLVSSLK-NH2 [Rm55a]	103 ± 2

Same assay, conditions: sigmoidal dose-response fit of growth inhibition, absorbance at 600 nm

Substance	MIC [µM]
FIGGLIKFIAKFVPKILPFFQKKN-OH [Rm34a]	≤0.09
FLPFLIPVIASLVSSLK-NH2 [Rm55a]	≤0.14

Same assay, conditions: summary of Table S2

Substance	EC50 [µM]
FIGGLIKFIAKFVPKILPFFQKKN-OH [Rm34a]	≤ 0.09
FLPFLIPVIASLVSSLK-NH2 [Rm55a]	≤ 0.14

System: Klebsiella pneumoniae ATCC 700603
Experiment: Antimicrobial growth inhibition (CO-ADD)
Type: cell-based
Conditions: percentage growth inhibition, absorbance at 600 nm; mean ± SEM
Method: as §1

Substance	Max response ± SEM
FIGGLIKFIAKFVPKILPFFQKKN-OH [Rm34a]	70 ± 28
FLPFLIPVIASLVSSLK-NH2 [Rm55a]	8 ± 1

Same assay, conditions: sigmoidal dose-response fit of growth inhibition, absorbance at 600 nm

Substance	MIC [µM]
FIGGLIKFIAKFVPKILPFFQKKN-OH [Rm34a]	11
FLPFLIPVIASLVSSLK-NH2 [Rm55a]	>17

System: Acinetobacter baumannii ATCC 19606
Experiment: Antimicrobial growth inhibition (CO-ADD)
Type: cell-based
Conditions: percentage growth inhibition, absorbance at 600 nm; mean ± SEM
Method: as §1

Substance	Max response ± SEM
FIGGLIKFIAKFVPKILPFFQKKN-OH [Rm34a]	100 ± 0
FLPFLIPVIASLVSSLK-NH2 [Rm55a]	24 ± 1

Same assay, conditions: sigmoidal dose-response fit of growth inhibition, absorbance at 600 nm

Substance	MIC [µM]
FIGGLIKFIAKFVPKILPFFQKKN-OH [Rm34a]	≤0.09
FLPFLIPVIASLVSSLK-NH2 [Rm55a]	>17

Same assay, conditions: summary of Table S2

Substance	EC50 [µM]
FIGGLIKFIAKFVPKILPFFQKKN-OH [Rm34a]	≤ 0.09

System: Escherichia coli ATCC 25922
Experiment: Antimicrobial growth inhibition (CO-ADD)
Type: cell-based
Conditions: percentage growth inhibition, absorbance at 600 nm; mean ± SEM
Method: as §1

Substance	Max response ± SEM
FIGGLIKFIAKFVPKILPFFQKKN-OH [Rm34a]	98 ± 0
FLPFLIPVIASLVSSLK-NH2 [Rm55a]	4 ± 1

Same assay, conditions: sigmoidal dose-response fit of growth inhibition, absorbance at 600 nm

Substance	MIC [µM]
FIGGLIKFIAKFVPKILPFFQKKN-OH [Rm34a]	8.6
FLPFLIPVIASLVSSLK-NH2 [Rm55a]	>17

System: Pseudomonas aeruginosa ATCC 27853
Experiment: Antimicrobial growth inhibition (CO-ADD)
Type: cell-based
Conditions: percentage growth inhibition, absorbance at 600 nm; mean ± SEM
Method: as §1

Substance	Max response ± SEM
FIGGLIKFIAKFVPKILPFFQKKN-OH [Rm34a]	85 ± 6
FLPFLIPVIASLVSSLK-NH2 [Rm55a]	10 ± 1

Same assay, conditions: sigmoidal dose-response fit of growth inhibition, absorbance at 600 nm

Substance	MIC [µM]
FIGGLIKFIAKFVPKILPFFQKKN-OH [Rm34a]	11
FLPFLIPVIASLVSSLK-NH2 [Rm55a]	>17

System: Human embryonic kidney cells ATCC CRL-1573
Experiment: Cytotoxicity assay (CO-ADD), resazurin
Type: cell-based
Conditions: percentage growth inhibition, resazurin fluorescence, 37°C 5% CO2; mean ± SEM
Method: as §1

Substance	Max response ± SEM
FIGGLIKFIAKFVPKILPFFQKKN-OH [Rm34a]	57 ± 5
FLPFLIPVIASLVSSLK-NH2 [Rm55a]	51 ± 0

Same assay, conditions: resazurin fluorescence; sigmoidal dose-response fit

Substance	CC50 (concentration at 50% cytotoxicity)
FIGGLIKFIAKFVPKILPFFQKKN-OH [Rm34a]	1.7 µM
FLPFLIPVIASLVSSLK-NH2 [Rm55a]	>17 (CC50) uM

System: F11 (mouse neuroblastoma × rat dorsal root ganglion (DRG) neuron hybrid) cells
Experiment: Calcium imaging of F11 cells (FLIPR)
Type: cell-based
Conditions: increase in [Ca2+]i, max – min fluorescence, n = 3, four-parameter Hill equation; read-out: EC50 (effect on F11 cells, Fig. 5)
Method: F11 (mouse neuroblastoma × rat dorsal root ganglion (DRG) neuron hybrid) cells were cultured as previously described. Cells were maintained on Ham’s F12 media supplemented with 10 % fetal bovine serum, 100 μM hypoxanthine, 0.4 μM aminopterin, and 16 μM thymidine (Hybri-MaxTM, Sigma Aldrich). 384-well imaging plates (Corning, Lowell, MA, USA) were seeded 48 h prior to imaging resulting in 90 – 95% confluence at imaging. Cells were incubated for 30 min with Calcium 4 assay component A, as per the manufacturer’s instructions (Molecular Devices, Sunnyvale, CA) in physiological salt solution (PSS; composition in mM: 140 NaCl, 11.5 D-glucose, 5.9 KCl, 1.4 MgCl2, 1.2 NaH2PO4, 5 NaHCO3, 1.8 CaCl2, 10 HEPES) at 37°C. […] Signals were read every second for 10 s before, and 300 s after, the addition of peptides in PSS supplemented with 0.1% bovine serum albumin. All data represent mean ± SEM of a representative assay in triplicate. Fluorescence changes on peptide addition were compared to addition of negative control solution (0.1% BSA in PSS). The resulting maximum-minimum fluorescence in the 300 s period after peptide addition was recorded as the response.

Substance	EC50 [µM]
FLPFLIPVIASLVSSLK-NH2 [Rm55a]	9.2

Same assay, conditions: increase in [Ca2+]i, max-min fluorescence over 300 s; read-out: EC50 (F11 cells, Table S2)

Substance	EC50 [µM]
FIGGLIKFIAKFVPKILPFFQKKN-OH [Rm34a]	4.8

System: HEK
Experiment: Ion permeability HEK
Type: cell-based, Human
Conditions: ions listed as permeant; - = none

Substance	ion permeability HEK
FIGGLIKFIAKFVPKILPFFQKKN-OH [Rm34a]	Ca2+,Na+,Th+
FLPFLIPVIASLVSSLK-NH2 [Rm55a]	Ca2+,Na+

System: Female fruit flies (D. melanogaster strain Canton-S)
Experiment: Fruit fly injection assay (lethality, paralysis, climbing)
Type: in vivo, Drosophila melanogaster
Conditions: 5 nmol/g injected, climbing assay 5 min after injection; significant versus control
Method: Female fruit flies (D. melanogaster strain Canton-S) were injected four to six days post-emergence. Female flies were used because their larger size makes injection easier. Groups of eight female flies were assayed in triplicate for each dose tested. Injection needles were formed from glass capillary tubes (#3-000-203-G/X, Drummond, Birmingham, AL, USA) using a micropipette puller (Sutter Instrument Co. Model P-97), with the fine tip manually trimmed afterwards using scissors. Needles then were filled with mineral oil, connected to a Nanoliter 2000 microinjector ([…], Bensenville, IL USA) equipped with a foot pedal, and ~1 μL of peptide solution or water aspirated. Each group of flies were immobilized by cooling for approximately 2 min on ice, and then decanted on the top of the ‘injection stage’, a petri dish filled with ice. Under a dissecting microscope, each fly was carefully impaled on the lateral thorax behind the wing, and 50.6 nL of venom peptide or water was injected. After injection, each group of flies were returned to their 5 mL plastic tube at room temperature and their behavior observed.

Substance	Motor behavior (climbing assay)
FIGGLIKFIAKFVPKILPFFQKKN-OH [Rm34a]	disrupted motor behavior

System: panel of microbes
Experiment: Antimicrobial screening, summary over the panel of microbes
Type: cell-based
Conditions: all strains of the panel (for Rm54a and Rm55a: strains other than S. aureus)
Method: as §1

Substance	Growth inhibition over the microbial strains examined
FIGGLIKFIAKFVPKILPFFQKKN-OH [Rm34a]	complete or near-complete growth inhibition of all microbial strains
FLPFLIPVIASLVSSLK-NH2 [Rm55a]	not affecting any of the other strains examined
